# From patent publication US20260224566A1, “Obicetrapib and Ezetimibe Combination Treatment and Fixed Dose Pharmaceutical Compositions” (NewAmsterdam Pharma B.V., priority 2023, published 2026)
# Key:
# [1] = tested on: ApoE*3-Leiden.CETP transgenic mice; test: Example 12: plasma lipids, VLDL clearance, LDL receptor, fecal and biliary sterols in ApoE*3-Leiden.CETP mice; assay type: in vivo, mouse
# Description: Obicetrapib is a selective cholesteryl ester transfer protein (CETP) inhibitor currently in clinical development for the treatment of hypercholesterolemia and reduction of cardiovascular risk that strongly reduces Apolipoprotein B (ApoB) and low-density lipoprotein cholesterol (LDL-C) and concomitantly increases plasma high-density lipoprotein cholesterol (HDL-C). Ezetimibe reduces absorption of biliary and dietary cholesterol from the small intestine, thereby reducing LDL-C levels. The current study was carried out to elucidate the mechanism of action responsible for the observed decrease in non-HDL-C by obicetrapib monotherapy and in combination with ezetimibe in a translational mouse model for hyperlipidemia and atherosclerosis.
# (§1) The experimental protocol is illustrated in FIG. 71, with time (t) measured in weeks. Female ApoE*3-Leiden.CETP transgenic mice were fed a Western diet with 0.05% w/w cholesterol (equivalent to daily human intake) with (i) no drug (control), or the same diet containing (ii) obicetrapib alone (2 mg/kg/day), (iii) ezetimibe alone (1 mg/kg/day) or (iv) the combination of obicetrapib and ezetimibe. In the experiment, the effects of the treatments on, amongst other things, plasma blood lipids and fecal bile acids and sterols were determined.
# [2] = TA-8995-04, healthy volunteers; cited from earlier work
# [3] = target: T1, CETP (Homo sapiens, UniProt P11597); test: Example 12: CETP activity and mass in ApoE*3-Leiden.CETP mice; assay type: in vivo, mouse
# T1 construct: from tissue; host or cells: female ApoE*3-Leiden.CETP transgenic mice dosed in vivo
# T1 sequence (P11597 18-493): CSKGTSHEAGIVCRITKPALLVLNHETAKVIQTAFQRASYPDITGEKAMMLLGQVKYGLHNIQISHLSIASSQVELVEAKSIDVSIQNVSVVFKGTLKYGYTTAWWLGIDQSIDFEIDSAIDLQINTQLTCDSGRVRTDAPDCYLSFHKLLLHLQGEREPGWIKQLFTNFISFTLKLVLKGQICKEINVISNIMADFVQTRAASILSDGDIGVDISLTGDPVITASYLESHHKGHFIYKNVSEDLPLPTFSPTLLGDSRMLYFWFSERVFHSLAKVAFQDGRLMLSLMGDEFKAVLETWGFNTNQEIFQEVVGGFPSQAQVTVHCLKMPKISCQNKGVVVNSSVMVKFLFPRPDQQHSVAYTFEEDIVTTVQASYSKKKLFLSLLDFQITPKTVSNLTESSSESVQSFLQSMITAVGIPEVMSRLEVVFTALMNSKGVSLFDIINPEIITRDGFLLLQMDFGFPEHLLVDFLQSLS
# Description: To further elucidate the effects of the combination treatment, further studies were carried out using a standard human CETP transgenic knock-in mouse. As can be inferred from the experimental results reported herein, Obicetrapib alone and the combination with ezetimibe reduce non-HDL-C levels by increased VLDL lipolysis, increased VLDL clearance and elevated LDL receptor levels accompanied by an enhanced fecal bile acid and neutral sterol excretion.
# as §1
# [4] = tested on: ApoE*3-Leiden.CETP transgenic mice; test: Example 13: plasma cholesterol and atherosclerosis development in aortic root of ApoE*3-Leiden.CETP mice; assay type: in vivo, mouse
# Description: The current study was carried out to evaluate the effect of obicetrapib monotherapy and a combination of obicetrapib+ezetimibe on atherosclerosis development in a translational mouse model for hyperlipidemia and atherosclerosis.
# The experimental protocol is illustrated in FIG. 82, with time (t) measured in weeks. Female ApoE*3-Leiden.CETP transgenic mice were fed a Western diet with 0.05% w/w cholesterol (equivalent to daily human intake) with (i) no drug (control), or the same diet containing (ii) obicetrapib alone (2 mg/kg/day), (iii) ezetimibe alone (on average 0.6 mg/kg/day) or (iv) the combination of obicetrapib and ezetimibe.
# [5] = obicetrapib 2 mg/kg/day, ezetimibe 1 mg/kg/day in Western diet
# [6] = aortic root, 28 weeks of treatment
# [7] = obicetrapib 2 mg/kg/day, ezetimibe on average 0.6 mg/kg/day in Western diet
smiles,measurement,setting,value
"CCOC(=O)N1c2ccc(C(F)(F)F)cc2[C@@H](N(Cc2cc(C(F)(F)F)cc(C(F)(F)F)c2)c2ncc(OCCCC(=O)O)cn2)C[C@H]1CC [obicetrapib, {4-[(2-{[3,5-bis(trifluoromethyl)benzyl] [(2R,4S)-1-(ethoxycarbonyl)-2-ethyl-6-(trifluoromethyl)-1,2,3,4-tetrahydroquinolin-4-yl]amino}pyrimidin-5-yl)oxy]butanoic acid}]",triglycerides levels,[1]; FIG. 74,decreased
same,liver uptake of VLDL like particles,[1]; FIG. 77,increased
same,plasma pcsk-9 levels,[1]; FIG. 78,decreased
same,cholesterol balance,[1]; FIG. 81,decreased
same,biliary bile acids and biliary bile acid flow,[1]; not shown,did not affect
same,biliary phospholipids and biliary phospholipid flow,[1]; not shown,did not affect
same,"fecal bile acid excretion, change",[1]; obicetrapib 2 mg/kg/day in Western diet,+41%
same,"ApoA1 levels, increase",[1]; [5],98%
same,"HDL-C, change",[1]; [5],+260%
same,"half-life of VLDL-like particles, change",[1]; [5],−44%
same,"hepatic LDL receptor expression, change",[1]; [5],+63%
same,"non-HDL-C levels, change",[1]; [5],−61%
same,"total plasma cholesterol levels, change",[1]; [5],−42%
same,effect on the QTcF,[2],no effect
same,cetp mass,[3]; data not shown,does not affect
same,"CETP activity, change",[3]; [5],−99%
same,HDL-cholesterol,[4]; FIG. 84B,increases
same,"percentage of unaffected segments, increase",[4]; [6],+347%
same,"severe lesions (types IV-V), change",[4]; [6],−82%
same,"total atherosclerotic lesion size, change","[4]; aortic root, 28 weeks of treatment, versus control",−90%
same,"non-HDL-C levels, change",[4]; [7],−53%
same,"total plasma cholesterol levels, change",[4]; [7],−31%
same,lesion number,"[4]; versus control animals, FIG. 90B",statistically significant reductions
